Test results published in US9504692B2, “Selective inhibition of MALT1 protease by phenothiazine derivatives” (HELMHOLTZ ZENTRUM MUNCHEN, DEUTSCHES FORSCHUNGSZENTRUM FUR …, priority 2011, dated 2016).
Entries after “also recorded” stand apart in the source; their conditions may differ. Where two headings read alike, the source gives them in different places. *1 amine or outer side, *2 acyl side, *3 side chain or, on linkers, in order; H or OH if unused. Where a SMILES comes first, the peptide text is derived from it. [ ]: non-standard residue; d: D form. The star is where a group is joined. Sta = CC(C)C[C@H](N)[C@@H](O)CC(=O)O; Isovaleryl = CC(C)CC(=O)*; CO = O=C([*:1])[*:2]

What was measured:
[1] = target: recombinant full length (FL) GSTMALT1 (Homo sapiens (Human), UniProt Q9UDY8); experiment: Recombinant GSTMALT1 cleavage assay with Ac-LRSR-AMC; type: biochemical
Protocol: The MALT1 cleavage assay was used to screen ˜18000 small molecules of the ChemBioNet library at the Leibniz Institute for Molecular Pharmacology (FMP) in Berlin.^35 Screening volume was 11 μl in a 384-well non-binding assay plate (Corning) with […] GSTMALT1 against 10 μM final concentration of compounds. The assay was performed with 50 μM of Ac-LRSR-AMC substrate for 20 min at 30° C. As a negative control the recombinant MALT1 mutant C453A was used, as a medium inhibition control 1 nM of the Z-VRPR-FMK peptide.
To screen for small molecular weight compounds that can inhibit MALT1 protease activity, recombinant GSTMALT1 was purified from E. coli to establish an in vitro protease cleavage assay suitable for high throughput screening (HTS). GSTMALT1 was incubated for 1 h at 30° C. in the presence of 50 μM of the tetrapeptide substrate Ac-LRSR-AMC, which is derived from the MALT1 cleavage site in the C-terminus of BCL10.^7 Proteolytic activity was determined by measuring the increase of fluorescence, which is emitted after cleavage and the accompanying release of the fluorophore AMC (FIGS. 1A and B). […] Similar to arginine-lysine specific metacaspases, the MALT1 protease has a high preference for cleaving after an arginine residue.

AtMC4 = AtMC4 (Arabidopsis thaliana (Mouse-ear cress), UniProt O64517); settings: cited from earlier work
AtMC9 = AtMC9 (Arabidopsis thaliana (Mouse-ear cress), UniProt Q9FYE1); settings: cited from earlier work
Jurkat T cells = experiment: IL-2 secretion of Jurkat T cells (ELISA); type: cell-based, human; settings: 5 and 10 μM; P/I or anti-CD3/CD28 for 20 h
[2] = tested on: primary murine CD4+ T-cells; experiment: IL-2 mRNA (qPCR) and protein (ELISA) in primary murine CD4+ T cells; type: cell-based, mouse; settings: 5 and 10 μM
primary human PBMCs = experiment: IL-2 secretion of primary human PBMCs (ELISA); type: cell-based; settings: 5 and 10 μM for 3 h; anti-CD3/CD28 20 h
NF-κB = NF-κB DNA binding (EMSA) and NF-κB target proteins in ABC-DLBCL cells; type: cell-based; settings: 10 and 20 μM
[3] = tested on: ABC-DLBCL cells HBL1, OCI-Ly3, U2932 and TMD8; experiment: MTT cytotoxicity test, ABC-DLBCL cells; type: cell-based; settings: two days, single treatment, increasing concentrations
Protocol: (§1) Viability of DLBCL cell lines was analysed with a cell count assay of trypan blue stained cells after four days and by MTT (3-4,5-Dimethylthiazol-2-yl-2,5-diphenyltetrazoliumbromid) cytotoxicity test after two days of dose-dependent inhibitor treatment in comparison to DMSO treated control cells. The cell-dependent reduction of MTT to formazan was measured at λ=450 nm with a μQuant microplate spectrophotometer (Biotek). Apoptosis rates were determined with PE-Annexin V staining of 7AAD^− cells (BD Pharmingen) by FACS analysis (LSRII, BD) after five days of compound treatment. Data was analyzed using FlowJo software (Treestar).
(§2) Further, cell viability was determined by cell counting after 4 days of treatment (FIG. 7B, D and FIG. 12C).

[4] = tested on: GCB-DLBCL cell lines BJAB, Su-DHL-6 and Su-DHL-4; experiment: MTT cytotoxicity test, GCB-DLBCL cells; type: cell-based; settings: two days, single treatment, increasing concentrations
Protocol: as §1, §2

ABC-DLBCL cells [5] = experiment: Apoptosis by AnnexinV-PE/7-AAD FACS, ABC-DLBCL cells; type: cell-based; settings: 15 μM, five days
Protocol: as §1

GCB-DLBCL cells [6] = experiment: Apoptosis by AnnexinV-PE/7-AAD FACS, GCB-DLBCL cells; type: cell-based; settings: 15 μM, five days
Protocol: as §1

[7] = tested on: ABC-DLBCL cell line OCI-Ly10; experiment: Murine DLBCL xenogeneic tumor model, ABC-DLBCL OCI-Ly10; type: in vivo, NSG mice
Protocol: (§3) (A) Transplantation of OCI-Ly10 or Su-DHL-6 cells resuspended in matrigel (BD) into the flanks of NOD.Cg-Prkdc^scid ll2rg^tm1Wjl/SzJ (NSG) mice was carried out on day 0. Tumor size was determined by caliper measurement. […] Apoptosis was determined on tumor sections by TUNEL staining after 22 days of treatment. Pictures show staining of representative tumor sections. […] Expression of RelB and the MALT1-dependent cleavage product RelBΔ were detected in extracts of OCI-Ly10 tumor specimens by Western Blotting after 22 days.
(§4) For this purpose, the ABC-DLBCL cell line OCI-Ly10 and the GCB-DLBCL cell line Su-DHL-6 were injected as subcutaneous xenografts into NOD/scid IL-2Rg^null (NSG) mice (FIG. 8A). Both tumor cell lines were engrafted simultaneously on opposite flanks of individual mice.
(§5) Transplanted tumors were removed at the end of the treatment period and apoptotic cells were visualized by TUNEL staining on sections of the tumor tissue (FIG. 8B).

[8] = tested on: GCB-DLBCL cell line Su-DHL-6; experiment: Murine DLBCL xenogeneic tumor model, GCB-DLBCL Su-DHL-6; type: in vivo, NSG mice
Protocol: as §3, §4, §5

ABC-DLBCL cells [9] = experiment: IL-6 and IL-10 secretion of ABC-DLBCL cells (ELISA); settings: 20 h; ABC cell lines
Protocol: Whole cell extracts, Western blotting and EMSA were performed as described previously.^9 Antibodies used were BCL-XL (Cell signaling), MALT1 (H300, B12), BCL10 (H197), c-FLIP (Alexis Biochemicals) and β-Actin (I-19). BCL10 cleavage was visualized after 20 h treatment of diffuse large B-cell lymphoma cells with different doses of PD.

ABC-DLBCL cells [10] = experiment: Viability by cell counting, ABC-DLBCL cells; type: cell-based; settings: 4 days of treatment
Protocol: as §1, §2

GCB-DLBCL cells [11] = experiment: Viability by cell counting, GCB-DLBCL cells; type: cell-based; settings: 4 days of treatment
Protocol: as §1, §2

human recombinant CASP8 = human recombinant CASP8 (Homo sapiens (Human), UniProt Q14790); experiment: CASP8 cleavage assay with Ac-DEVD-AMC; type: biochemical; settings: 50 pM; picomolar concentrations
Protocol: After incubation of 16 h at 4° C.

[12] = daily i.p., mepazine 12 mg/kg or thioridazine 16 mg/kg, 22 days

Sequence of recombinant full length (FL) GSTMALT1 (Q9UDY8 other isoform, or with tags, fused parts or gaps): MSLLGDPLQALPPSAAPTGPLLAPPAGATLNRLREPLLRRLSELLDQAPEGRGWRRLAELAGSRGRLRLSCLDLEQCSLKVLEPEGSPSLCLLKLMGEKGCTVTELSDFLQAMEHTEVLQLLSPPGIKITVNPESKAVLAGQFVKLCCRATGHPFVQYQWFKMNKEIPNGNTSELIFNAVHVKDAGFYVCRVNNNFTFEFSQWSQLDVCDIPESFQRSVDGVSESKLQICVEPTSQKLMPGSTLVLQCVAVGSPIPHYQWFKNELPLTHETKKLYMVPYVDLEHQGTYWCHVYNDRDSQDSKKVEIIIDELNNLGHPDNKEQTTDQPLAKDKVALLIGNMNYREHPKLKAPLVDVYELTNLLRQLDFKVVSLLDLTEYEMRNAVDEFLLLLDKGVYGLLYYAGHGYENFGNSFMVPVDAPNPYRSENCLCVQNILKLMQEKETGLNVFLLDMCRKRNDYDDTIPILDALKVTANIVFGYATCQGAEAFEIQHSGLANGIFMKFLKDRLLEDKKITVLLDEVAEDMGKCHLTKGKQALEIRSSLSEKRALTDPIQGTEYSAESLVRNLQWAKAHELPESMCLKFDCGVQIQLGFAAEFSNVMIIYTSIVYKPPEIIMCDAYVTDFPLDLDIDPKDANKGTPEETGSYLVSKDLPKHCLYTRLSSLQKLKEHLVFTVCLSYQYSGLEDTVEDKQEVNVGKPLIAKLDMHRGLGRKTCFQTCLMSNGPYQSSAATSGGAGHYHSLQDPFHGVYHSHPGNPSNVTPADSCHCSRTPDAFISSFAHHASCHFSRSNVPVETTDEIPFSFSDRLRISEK
Sequence of AtMC9 (Q9FYE1 whole entry): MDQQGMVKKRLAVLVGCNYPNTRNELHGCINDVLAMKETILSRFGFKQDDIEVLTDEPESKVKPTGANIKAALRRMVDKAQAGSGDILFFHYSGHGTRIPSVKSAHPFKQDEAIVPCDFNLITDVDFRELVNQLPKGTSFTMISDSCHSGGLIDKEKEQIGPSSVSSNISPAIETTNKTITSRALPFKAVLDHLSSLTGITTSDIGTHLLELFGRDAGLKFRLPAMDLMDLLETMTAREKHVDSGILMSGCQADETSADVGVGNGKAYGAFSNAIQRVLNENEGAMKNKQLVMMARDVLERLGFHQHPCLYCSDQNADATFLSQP
Sequence of AtMC4 (O64517 whole entry): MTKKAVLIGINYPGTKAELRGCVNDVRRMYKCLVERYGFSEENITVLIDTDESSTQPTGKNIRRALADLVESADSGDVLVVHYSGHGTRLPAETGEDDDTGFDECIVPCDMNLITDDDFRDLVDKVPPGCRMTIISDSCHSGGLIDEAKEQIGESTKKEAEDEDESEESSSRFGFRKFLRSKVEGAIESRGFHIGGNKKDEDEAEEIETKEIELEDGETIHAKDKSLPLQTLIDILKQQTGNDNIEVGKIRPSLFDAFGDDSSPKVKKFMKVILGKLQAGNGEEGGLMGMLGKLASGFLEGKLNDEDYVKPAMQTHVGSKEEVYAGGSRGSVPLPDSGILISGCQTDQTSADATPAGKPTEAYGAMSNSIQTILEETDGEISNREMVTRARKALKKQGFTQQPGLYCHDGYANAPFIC
Sequence of human recombinant CASP8 (Q14790 217-374): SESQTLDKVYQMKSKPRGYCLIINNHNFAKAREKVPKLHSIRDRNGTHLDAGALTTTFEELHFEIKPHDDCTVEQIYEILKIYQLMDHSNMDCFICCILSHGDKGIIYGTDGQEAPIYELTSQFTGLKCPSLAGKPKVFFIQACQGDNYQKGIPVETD
Sequence of human recombinant CASP8 (Q14790 385-479): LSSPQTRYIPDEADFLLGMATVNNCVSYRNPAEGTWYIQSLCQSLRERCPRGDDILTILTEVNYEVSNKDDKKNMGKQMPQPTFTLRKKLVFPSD

For `CC(C)[C@H](NC(=O)[C@H](CCCNC(=N)N)NC(=O)N[C@@H](Cc1ccccc1)C(=O)O)C(=O)N[C@H](C=O)CCCNC(=N)N` [Antipain] ({Phe-CO}-Arg-Val-Arg-aldehyde), the “effect on MALT1 activity” value ([1]; 1 μM inhibitor) is listed as “diminished; also recorded: inhibited”, the “effect on AtMC4” value (AtMC4; 1 μM inhibitor) is listed as “inhibited” and the “effect on AtMC9” value (AtMC9; 1 μM inhibitor) is listed as “inhibited”.
In the case of `CC(C)C[C@H](NC(=O)[C@@H](NC(=O)N[C@@H](Cc1ccccc1)C(=O)O)[C@@H]1CCN=C(N)N1)C(=O)N[C@H](C=O)Cc1ccccc1` [Chymostatin], the “effect on MALT1 activity” value ([1]; 100 μM inhibitor) is listed as “diminished; also recorded: inhibited”, the “effect on AtMC4” value (AtMC4; 100 μM inhibitor) is listed as “inhibited” and the “effect on AtMC9” value (AtMC9; 100 μM inhibitor) is listed as “inhibited”.
For `CC(C)C[C@H](NC(=O)[C@H]1O[C@@H]1C(=O)O)C(=O)NCCCCN=C(N)N` [E-64], the “effect on MALT1 activity” value ([1]; 100 μM inhibitor) is given as “does not inhibit MALT1”, the “effect on AtMC4” value (AtMC4; 100 μM inhibitor) is given as “mild effect” and the “effect on AtMC9” value (AtMC9; 100 μM inhibitor) is given as “not AtMC9”.
In the case of `CC(=O)N[C@@H](CC(C)C)C(=O)N[C@@H](CC(C)C)C(=O)N[C@H](C=O)CCCNC(=N)N` [Leupeptin], the “effect on AtMC4” value (AtMC4; 1 μM inhibitor) is given as “acting stronger on plant metacaspases” and the “effect on AtMC9” value (AtMC9; 1 μM inhibitor) is given as “acting stronger on plant metacaspases”.
With `CC(C)CC(=O)N[C@H](C(=O)N[C@H](C(=O)N[C@@H](CC(C)C)[C@@H](O)CC(=O)N[C@@H](C)C(=O)N[C@@H](CC(C)C)[C@@H](O)CC(=O)O)C(C)C)C(C)C` [Pepstatin A] (Isovaleryl-VV[Sta]A[Sta]-OH) the “effect on MALT1 activity” value ([1]; 100 μM inhibitor) was “no effects”.
For `Cc1ccc(S(=O)(=O)NC(CCCCN)C(=O)CCl)cc1` (stereo not shown) [TLCK], the “effect on MALT1 activity” value ([1]; 1 μM inhibitor) is given as “no effects; also recorded: only mildly affecting MALT1 activity”, the “effect on AtMC4” value (AtMC4; 1 μM inhibitor) is given as “much weaker” and the “effect on AtMC9” value (AtMC9; 1 μM inhibitor) is given as “strongly inhibits”.
For `CN1CCCC(CN2c3ccccc3Sc3ccccc32)C1` (stereo not shown) [mepazine, 10-[(1-methyl-3-piperidinyl)methyl]-10H-phenothiazine acetate], the “secreted IL-2 levels” value (Jurkat T cells) was “decrease of IL-2 levels”, the “IL-2 mRNA induction” value ([2]; 3 h pre-treatment, anti-CD3/CD28 4 h) was “reduced in a dose-dependent manner” and the IL-2 protein expression ([2]; anti-CD3/CD28 20 h) was “reduced in a dose-dependent manner”. The IL-2 secretion (primary human PBMCs) was “significant decrease of IL-2 secretion”, the “BCL-XL and FLIP-L protein levels” value (NF-κB; 20 h) was “dose-dependent decrease” and the “NF-κB target DNA binding” value (NF-κB; 20 hours) was “reduced NF-κB target DNA binding”. For the same molecule, the “cell viability by MTT” value [3] was “promoted a decrease of cell viability”, the “cell viability by MTT” value [4] was “without significantly affecting GCB-DLBCL cells” and the apoptotic rate (ABC-DLBCL cells [5]) was “enhanced apoptotic rate”. The apoptotic rate (GCB-DLBCL cells [6]) was “apoptosis was not increased”, the “constitutive RelB cleavage in OCI-Ly10 tumor specimens” value ([7]; Western Blot after 22 days) was “impaired” and the “apoptotic cells in tumor sections (TUNEL)” value ([7]; after 22 days of treatment) was “increased the number of apoptotic cells”. For the same molecule, the “tumor growth of OCI-Ly10 xenograft” value [7, 12] was “strongly impaired the expansion”, the “apoptotic cells in tumor sections (TUNEL)” value ([8]; after 22 days of treatment) was “no induction of apoptosis” and the “tumor growth of Su-DHL-6 xenograft” value [8, 12] was “completely failed to exert any inhibitory effects”. The “decrease of IL-6 and IL-10 secretion” value (ABC-DLBCL cells [9]) was roughly 50%.
For `c1ccc2c(c1)Nc1ccccc1S2` [phenothiazine], the “inhibition of GSTMALT1 activity” value ([1]; 1, 5 and 20 μM) was “inhibiting MALT1 activity in a dose-dependent manner”.
With `CC(CN1c2ccccc2Sc2ccccc21)N(C)C` (stereo not shown) [promethazine] the MALT1 inhibition ([1]; concentrations up to 20 μM) was “not inhibiting MALT1 protease activity; also recorded: did not cause any significant MALT1 inhibition”, the “number of viable cells / viability” value (ABC-DLBCL cells [10]) was “did not significantly inhibit viability” and the “number of viable cells / viability” value (GCB-DLBCL cells [11]) was “did not significantly inhibit viability”.
For Ac-DEVD-CHO, the “effect on MALT1 activity” value ([1]; 200 μM inhibitor) was “not significantly active; also recorded: only marginally reduced MALT1 activity” and the “CASP8 activity against Ac-DEVD-AMC” value (human recombinant CASP8) was “almost total decline of enzymatic activity; also recorded: effectively blocked CASP8 activity”.
In the case of Aprotinin, the “effect on MALT1 activity” value ([1]; 5 μg/ml inhibitor) is reported as “no effects”.
In the case of Z-VRPR-FMK, the “decrease of MALT1 activity” value ([1]; 1 nM inhibitor, 50 μM Ac-LRSR-AMC, 1 h at 30° C.) is reported as roughly 50% and the “MALT1 cleavage activity with increasing amounts of inhibitor” value ([1]; increasing amounts, low nanomolar concentrations) is reported as “total loss of MALT1 activity; also recorded: completely blocked MALT1 cleavage activity”.
